Reference: the CheMixHub viscosity set

Assay: xn = mol fraction of the nth substance listed

OCCCO + O
Conditions | viscosity [mPa·s]
293.15 K, 101.33 kPa, x1 = 0.1597 | 5.035
298.15 K, 101 kPa, x1 = 0.0743 | 1.975
298.15 K, 101 kPa, x1 = 0.1661 | 4.203
298.15 K, 101 kPa, x1 = 0.2338 | 6.223
298.15 K, 101 kPa, x1 = 0.3007 | 8.667
298.15 K, 101 kPa, x1 = 0.3965 | 12.43
298.15 K, 101 kPa, x1 = 0.4726 | 15.67
298.15 K, 101 kPa, x1 = 0.5649 | 19.7
298.15 K, 101 kPa, x1 = 0.6713 | 24.72
298.15 K, 101 kPa, x1 = 0.7492 | 28.53
298.15 K, 101 kPa, x1 = 0.8137 | 32
298.15 K, 101 kPa, x1 = 0.9572 | 39.94
298.15 K, 101.3 kPa, x2 = 0.0622 | 37.15
308.15 K, 101 kPa, x1 = 0.095 | 1.65
308.15 K, 101 kPa, x1 = 0.1968 | 4.202
308.15 K, 101 kPa, x1 = 0.3019 | 6.937
308.15 K, 101 kPa, x1 = 0.4108 | 9.362
308.15 K, 101 kPa, x1 = 0.495 | 11.66
308.15 K, 101 kPa, x1 = 0.6009 | 14.63
308.15 K, 101 kPa, x1 = 0.692 | 17.5
308.15 K, 101 kPa, x1 = 0.7938 | 20.41
308.15 K, 101 kPa, x1 = 0.9232 | 24.43
313.15 K, 101.33 kPa, x1 = 0.5449 | 11.05
323.15 K, 101.33 kPa, x1 = 0.7523 | 11.15

NC=O + OCCCO
viscosity [mPa·s], 100 kPa
Conditions | x1 = 0.1034 | x1 = 0.2038 | x1 = 0.3016 | x1 = 0.4021 | x1 = 0.5014 | x1 = 0.5969 | x1 = 0.7026 | x1 = 0.7996 | x1 = 0.8975
293.15 K | 38.53 | 28.29 | 19.85 | 14.09 | 10.47 | 8.232 | 6.233 | 5.198 | 4.415
298.15 K | 29.44 | 21.08 | 14.33 | 9.719 | 7.266 | 6.123 | 5.094 | 4.135 | 3.811
303.15 K | 23.41 | 16.76 | 11.34 | 7.417 | 5.776 | 4.679 | 4.163 | 3.336 | 3.213

OCCCO + CCC(C)=O
Conditions | viscosity [mPa·s]
318.15 K, 100 kPa, x1 = 0.7989 | 6.885

NC=O + CN(C)C=O
298.15 K, 101.3 kPa
Conditions | viscosity [mPa·s]
x1 = 0.1 | 1.041
x1 = 0.2 | 1.27
x1 = 0.3 | 1.472
x1 = 0.4 | 1.698
x1 = 0.5 | 1.939
x1 = 0.6 | 2.198
x1 = 0.7 | 2.483
x1 = 0.8 | 2.817
x1 = 0.9 | 3.191

OCCCl + OCCO
293.15 K, 101.33 kPa
Conditions | viscosity [mPa·s]
x2 = 0.1328 | 4.422
x2 = 0.2605 | 5.484
x2 = 0.3003 | 5.879
x2 = 0.3636 | 6.593
x2 = 0.4644 | 7.922
x2 = 0.5437 | 9.223
x2 = 0.6211 | 10.66
x2 = 0.6983 | 12.26
x2 = 0.7424 | 13.29
x2 = 0.8141 | 15.21
x2 = 0.8422 | 15.98
x2 = 0.9168 | 18.26

CN1CCC[C@H]1c1cccnc1 + CC(C)=O
viscosity [mPa·s], 101 kPa
Conditions | x1 = 0.1173 | x1 = 0.2498 | x1 = 0.378 | x1 = 0.5005 | x1 = 0.6228 | x1 = 0.7485 | x1 = 0.8439
298.15 K | 0.4615 | 0.6975 | 0.9326 | 1.28 | 1.695 | 2.274 | 2.856
308.15 K | 0.4184 | 0.6054 | 0.7994 | 1.075 | 1.397 | 1.818 | 2.248
323.15 K | 0.3526 | 0.4988 | 0.6476 | 0.8411 | 1.065 | 1.364 | 1.619

C=CCO + O
Conditions | viscosity [mPa·s]
298.15 K, 101.33 kPa, x1 = 0.04829 | 1.349
298.15 K, 101.33 kPa, x1 = 0.09818 | 1.682
298.15 K, 101.33 kPa, x1 = 0.1362 | 1.789
298.15 K, 101.33 kPa, x1 = 0.146 | 1.846
298.15 K, 101.33 kPa, x1 = 0.2038 | 1.888
298.15 K, 101.33 kPa, x1 = 0.2149 | 1.895
298.15 K, 101.33 kPa, x1 = 0.2178 | 1.887
298.15 K, 101.33 kPa, x1 = 0.2213 | 1.892
298.15 K, 101.33 kPa, x1 = 0.2883 | 1.891
298.15 K, 101.33 kPa, x1 = 0.3655 | 1.796
298.15 K, 101.33 kPa, x1 = 0.4148 | 1.75
298.15 K, 101.33 kPa, x1 = 0.6057 | 1.537
303.15 K, 101 kPa, x1 = 0.1 | 1.415
303.15 K, 101 kPa, x1 = 0.199 | 1.604
303.15 K, 101 kPa, x1 = 0.299 | 1.603
303.15 K, 101 kPa, x1 = 0.4 | 1.531
303.15 K, 101 kPa, x1 = 0.5 | 1.44
303.15 K, 101 kPa, x1 = 0.6 | 1.369
303.15 K, 101 kPa, x1 = 0.696 | 1.297
303.15 K, 101 kPa, x1 = 0.795 | 1.233
303.15 K, 101 kPa, x1 = 0.896 | 1.176
313.15 K, 101 kPa, x1 = 0.1 | 1.082
313.15 K, 101 kPa, x1 = 0.199 | 1.23
313.15 K, 101 kPa, x1 = 0.299 | 1.238
313.15 K, 101 kPa, x1 = 0.4 | 1.202
313.15 K, 101 kPa, x1 = 0.5 | 1.143
313.15 K, 101 kPa, x1 = 0.6 | 1.096
313.15 K, 101 kPa, x1 = 0.696 | 1.045
313.15 K, 101 kPa, x1 = 0.795 | 1.002
313.15 K, 101 kPa, x1 = 0.896 | 0.9616
318.15 K, 101 kPa, x1 = 0.1 | 0.9613
318.15 K, 101 kPa, x1 = 0.199 | 1.09
318.15 K, 101 kPa, x1 = 0.299 | 1.103
318.15 K, 101 kPa, x1 = 0.4 | 1.072
318.15 K, 101 kPa, x1 = 0.5 | 1.031
318.15 K, 101 kPa, x1 = 0.6 | 0.991
318.15 K, 101 kPa, x1 = 0.696 | 0.9463
318.15 K, 101 kPa, x1 = 0.795 | 0.9099
318.15 K, 101 kPa, x1 = 0.896 | 0.876
323.15 K, 101 kPa, x1 = 0.1 | 0.8601
323.15 K, 101 kPa, x1 = 0.199 | 0.9754
323.15 K, 101 kPa, x1 = 0.299 | 0.9907
323.15 K, 101 kPa, x1 = 0.4 | 0.9622
323.15 K, 101 kPa, x1 = 0.5 | 0.9263
323.15 K, 101 kPa, x1 = 0.6 | 0.8973
323.15 K, 101 kPa, x1 = 0.696 | 0.8586
323.15 K, 101 kPa, x1 = 0.795 | 0.8284
323.15 K, 101 kPa, x1 = 0.896 | 0.8008

CCCCCCCCCCC + CCCCCCCCCO
viscosity [mPa·s], 100 kPa
Conditions | x1 = 0.1008 | x1 = 0.2004 | x1 = 0.2999 | x1 = 0.3992 | x1 = 0.5014 | x1 = 0.5978 | x1 = 0.6993 | x1 = 0.7958 | x1 = 0.9
293.15 K | 8.362 | 6.114 | 4.688 | 3.479 | 2.709 | 2.208 | 1.803 | 1.531 | 1.326
298.15 K | 6.989 | 5.181 | 4.013 | 3.028 | 2.391 | 1.972 | 1.634 | 1.419 | 1.216
303.15 K | 5.885 | 4.422 | 3.464 | 2.653 | 2.124 | 1.777 | 1.529 | 1.296 | 1.117
308.15 K | 4.99 | 3.802 | 3.012 | 2.342 | 1.904 | 1.613 | 1.391 | 1.185 | 1.03
313.15 K | 4.264 | 3.291 | 2.636 | 2.084 | 1.718 | 1.5 | 1.271 | 1.09 | 0.956
318.15 K | 3.665 | 2.868 | 2.326 | 1.867 | 1.561 | 1.367 | 1.164 | 1.004 | 0.889
323.15 K | 3.17 | 2.503 | 2.066 | 1.685 | 1.461 | 1.249 | 1.07 | 0.928 | 0.826

CC(C)C#N + c1ccccc1
viscosity [mPa·s], 101 kPa
Conditions | x2 = 0.1007 | x2 = 0.2057 | x2 = 0.307 | x2 = 0.3954 | x2 = 0.4991 | x2 = 0.5899 | x2 = 0.6925 | x2 = 0.7959 | x2 = 0.8965
303.15 K | 0.459 | 0.458 | 0.46 | 0.465 | 0.472 | 0.483 | 0.497 | 0.516 | 0.539
308.15 K | 0.43 | 0.432 | 0.432 | 0.434 | 0.442 | 0.451 | 0.462 | 0.481 | 0.498

OCCCl + CCCOC(C)=O
viscosity [mPa·s], 101.33 kPa
Conditions | x1 = 0.1017 | x1 = 0.2031 | x1 = 0.3017 | x1 = 0.4061 | x1 = 0.5057 | x1 = 0.5974 | x1 = 0.7006 | x1 = 0.7963 | x1 = 0.9006
298.15 K | 0.593 | 0.658 | 0.736 | 0.852 | 0.989 | 1.155 | 1.43 | 1.805 | 2.302
303.15 K | 0.557 | 0.614 | 0.687 | 0.792 | 0.908 | 1.057 | 1.293 | 1.615 | 2.035
308.15 K | 0.525 | 0.58 | 0.642 | 0.733 | 0.856 | 0.97 | 1.177 | 1.473 | 1.81

Cc1cccc(C(C)C)c1 + Cc1ccc(C(C)C)cc1
101 kPa, x2 = 0.4
Conditions | viscosity [mPa·s]
293.15 K | 0.8
313.15 K | 0.72

CCCCCCCCCCC + CCCCCCCO
viscosity [mPa·s], 100 kPa
Conditions | x1 = 0.0999 | x1 = 0.1998 | x1 = 0.3007 | x1 = 0.399 | x1 = 0.5004 | x1 = 0.5988 | x1 = 0.7002 | x1 = 0.8004 | x1 = 0.8983
293.15 K | 5.317 | 4.102 | 3.124 | 2.518 | 2.05 | 1.798 | 1.547 | 1.383 | 1.239
298.15 K | 4.517 | 3.516 | 2.713 | 2.219 | 1.831 | 1.626 | 1.407 | 1.263 | 1.137
303.15 K | 3.86 | 3.037 | 2.378 | 1.975 | 1.654 | 1.47 | 1.284 | 1.158 | 1.048
308.15 K | 3.32 | 2.641 | 2.202 | 1.816 | 1.537 | 1.342 | 1.176 | 1.063 | 0.968
313.15 K | 2.876 | 2.315 | 1.956 | 1.633 | 1.369 | 1.229 | 1.078 | 0.981 | 0.896
318.15 K | 2.509 | 2.089 | 1.751 | 1.477 | 1.247 | 1.128 | 0.994 | 0.908 | 0.833
323.15 K | 2.251 | 1.86 | 1.575 | 1.34 | 1.14 | 1.04 | 0.918 | 0.843 | 0.777
